In ChEMBL document CHEMBL1201862, “PubChem BioAssay data set” (2004):
pIC50: −log10 of the molar value. Calls of active or inactive are those of the source.

Key:
[1] = molecular target: T1, Cytochrome P450 1A2 (Homo sapiens, UniProt P05177);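 also: PubChem cytochrome P450 panel assay, CYP1A2 panel member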
T1 sequence (P05177 whole entry): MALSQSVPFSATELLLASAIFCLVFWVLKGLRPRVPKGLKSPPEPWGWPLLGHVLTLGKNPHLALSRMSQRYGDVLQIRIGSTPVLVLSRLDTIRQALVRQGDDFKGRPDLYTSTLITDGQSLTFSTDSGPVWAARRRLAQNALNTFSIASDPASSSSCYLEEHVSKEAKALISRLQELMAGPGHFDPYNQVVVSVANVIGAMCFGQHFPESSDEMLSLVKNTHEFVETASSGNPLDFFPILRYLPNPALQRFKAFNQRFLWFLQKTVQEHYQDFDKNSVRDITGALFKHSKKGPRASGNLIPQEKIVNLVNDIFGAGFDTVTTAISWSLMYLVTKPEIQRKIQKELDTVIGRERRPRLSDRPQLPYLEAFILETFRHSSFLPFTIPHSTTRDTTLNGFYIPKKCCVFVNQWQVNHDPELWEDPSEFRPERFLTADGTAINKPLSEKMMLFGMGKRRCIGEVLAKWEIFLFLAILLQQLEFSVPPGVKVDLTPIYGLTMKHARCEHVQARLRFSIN

[2] = molecular target: T2, Mannose-6-phosphate isomerase (Homo sapiens, UniProt P34949); test: PMI enzyme inhibitors, confirmation, biochemical, fluorescence intensity (AID 1535)
T2 sequence (P34949 whole entry): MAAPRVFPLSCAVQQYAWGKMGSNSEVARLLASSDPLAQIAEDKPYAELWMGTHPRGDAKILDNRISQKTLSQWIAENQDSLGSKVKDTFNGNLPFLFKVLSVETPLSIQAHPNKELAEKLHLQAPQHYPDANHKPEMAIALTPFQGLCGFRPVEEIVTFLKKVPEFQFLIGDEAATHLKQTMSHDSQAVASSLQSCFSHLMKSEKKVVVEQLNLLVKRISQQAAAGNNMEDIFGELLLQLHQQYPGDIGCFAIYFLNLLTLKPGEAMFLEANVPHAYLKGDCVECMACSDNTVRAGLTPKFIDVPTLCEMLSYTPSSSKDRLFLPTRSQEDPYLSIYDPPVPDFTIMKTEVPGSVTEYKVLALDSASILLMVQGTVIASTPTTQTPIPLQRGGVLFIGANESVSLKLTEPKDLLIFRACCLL

[3] = molecular target: Phosphomannomutase 2 (Homo sapiens, UniProt O15305); test: Counter screen SAR assay for PMM2 inhibitors via a fluorescence intensity assay. [Related pubchem assays (depositor defined):AID1545, AID1574]
[4] = system: HEK293; test: cells; format: functional, cell-based; details: Homo sapiens
[5] = system: HEK293; test: cells; format: functional, cell-based; details: Homo sapiens; remark: listed apart in the source
[6] = system: HEK293; test: NOD2 signaling inhibitors in MDP-stimulated cells, cell-based, uHTS, luminescence (AID 2001); format: functional; details: Homo sapiens
[7] = molecular target: Nucleotide-binding oligomerization domain-containing protein 2 (Homo sapiens, UniProt Q9HC29); test: NOD2 signaling inhibitors, cell-based, luminescence, uHTS, HEK293 (AID 1566); format: functional
[8] = cells; format: functional
[9] = THP-1 cell cytotoxicity, dose response, cytotoxicity control for non-replicating M. tuberculosis project (AID 489025); format: functional
[10] = system: HEK293; test: NOD1 signaling inhibitors, primary screen, cell-based, luminescence, uHTS (AID 1578); format: functional; details: Homo sapiens
[11] = Counterscreen for AddAB inhibitors: absorbance-based bacterial cell-based high throughput dose response assay for inhibitors of bacterial viability. [Related pubchem assays (depositor defined):AID435030, AID449728, AID449731, AID488942, AID488955, AID488956]; format: functional
[12] = molecular target: Exodeoxyribonuclease V (Escherichia coli (strain K12), UniProt P04993+P07648+P08394); test: E. coli RecBCD inhibitors, dose response, counter-screen for AddAB inhibitor project, absorbance, V66 E. coli, mutant T4 phage (AID 492957); format: functional, cell-based, Escherichia coli str. K-12 substr. MG1655
[13] = system: HEK293; test: cells; format: functional, cell-based; details: Homo sapiens; remark: listed apart in the source
[14] = molecular target: T3, Tyrosine-protein phosphatase non-receptor type 7 (Homo sapiens, UniProt P35236); format: functional
T3 sequence (P35236 whole entry): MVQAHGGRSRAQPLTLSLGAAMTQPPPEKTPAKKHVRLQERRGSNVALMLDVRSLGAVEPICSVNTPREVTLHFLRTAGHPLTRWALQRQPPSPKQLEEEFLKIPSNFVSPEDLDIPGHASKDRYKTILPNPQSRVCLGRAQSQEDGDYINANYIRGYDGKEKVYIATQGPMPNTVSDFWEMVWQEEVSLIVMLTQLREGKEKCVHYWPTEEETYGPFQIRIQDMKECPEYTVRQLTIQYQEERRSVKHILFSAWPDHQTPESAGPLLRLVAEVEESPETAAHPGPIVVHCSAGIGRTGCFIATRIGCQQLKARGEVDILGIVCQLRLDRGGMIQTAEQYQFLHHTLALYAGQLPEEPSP

[15] = molecular target: T4, Hexokinase-1 (Homo sapiens, UniProt P19367); test: hexokinase 1 activators, dose response, selectivity assay for HKDC1 activator project, biochemical (AID 504762); format: functional
T4 sequence (P19367 whole entry): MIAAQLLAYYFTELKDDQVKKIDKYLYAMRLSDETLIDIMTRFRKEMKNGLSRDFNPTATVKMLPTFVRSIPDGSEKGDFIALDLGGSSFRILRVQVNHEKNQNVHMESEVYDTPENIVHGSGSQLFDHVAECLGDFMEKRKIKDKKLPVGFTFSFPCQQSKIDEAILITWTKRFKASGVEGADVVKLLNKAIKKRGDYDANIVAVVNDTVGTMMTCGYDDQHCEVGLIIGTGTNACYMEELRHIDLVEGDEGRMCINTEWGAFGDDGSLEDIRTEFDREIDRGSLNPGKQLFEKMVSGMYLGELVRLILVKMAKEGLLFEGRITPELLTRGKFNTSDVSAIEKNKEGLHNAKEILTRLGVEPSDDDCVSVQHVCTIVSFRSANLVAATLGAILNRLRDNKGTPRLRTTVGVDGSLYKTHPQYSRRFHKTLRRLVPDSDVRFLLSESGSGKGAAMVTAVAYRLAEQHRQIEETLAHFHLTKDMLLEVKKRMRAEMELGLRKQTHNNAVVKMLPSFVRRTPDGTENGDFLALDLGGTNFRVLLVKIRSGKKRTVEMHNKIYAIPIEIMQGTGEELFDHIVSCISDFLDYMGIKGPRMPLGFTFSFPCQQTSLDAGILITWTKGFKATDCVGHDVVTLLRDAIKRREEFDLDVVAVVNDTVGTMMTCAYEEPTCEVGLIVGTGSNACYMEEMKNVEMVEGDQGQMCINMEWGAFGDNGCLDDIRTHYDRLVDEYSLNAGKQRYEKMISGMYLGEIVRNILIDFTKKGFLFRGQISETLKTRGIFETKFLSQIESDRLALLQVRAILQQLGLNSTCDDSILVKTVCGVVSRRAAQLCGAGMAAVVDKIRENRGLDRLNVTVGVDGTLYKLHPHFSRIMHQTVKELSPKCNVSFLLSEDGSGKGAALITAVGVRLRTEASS

[16] = molecular target: T5, Tyrosine-protein phosphatase non-receptor type 22 (Homo sapiens, UniProt Q9Y2R2); format: functional
T5 sequence (Q9Y2R2 whole entry): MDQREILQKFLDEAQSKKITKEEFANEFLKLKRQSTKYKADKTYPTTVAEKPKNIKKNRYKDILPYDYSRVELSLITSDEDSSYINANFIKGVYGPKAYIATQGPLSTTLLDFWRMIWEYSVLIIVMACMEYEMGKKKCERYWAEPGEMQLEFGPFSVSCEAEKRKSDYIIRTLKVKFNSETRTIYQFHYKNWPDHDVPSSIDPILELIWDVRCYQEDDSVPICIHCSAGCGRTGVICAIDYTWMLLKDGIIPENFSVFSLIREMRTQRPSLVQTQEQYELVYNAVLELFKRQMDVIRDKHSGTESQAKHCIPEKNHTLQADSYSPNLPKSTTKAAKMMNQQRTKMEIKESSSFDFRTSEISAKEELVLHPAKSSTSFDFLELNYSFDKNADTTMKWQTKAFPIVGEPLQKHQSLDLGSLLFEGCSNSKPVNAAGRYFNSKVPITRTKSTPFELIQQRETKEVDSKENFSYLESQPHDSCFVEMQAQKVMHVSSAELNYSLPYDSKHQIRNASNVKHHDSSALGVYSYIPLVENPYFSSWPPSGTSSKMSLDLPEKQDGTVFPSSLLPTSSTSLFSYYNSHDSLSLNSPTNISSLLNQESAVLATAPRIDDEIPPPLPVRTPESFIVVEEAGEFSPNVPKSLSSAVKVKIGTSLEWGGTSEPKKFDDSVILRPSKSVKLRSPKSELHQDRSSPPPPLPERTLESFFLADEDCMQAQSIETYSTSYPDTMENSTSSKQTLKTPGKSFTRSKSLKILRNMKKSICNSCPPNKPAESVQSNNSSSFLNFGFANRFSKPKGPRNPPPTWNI

[17] = molecular target: T6, Hexokinase HKDC1 (Homo sapiens, UniProt Q2TB90); test: HKDC1 hexokinase activators, dose response, biochemical, W721R variant (AID 504730); format: functional
T6 sequence (Q2TB90 whole entry): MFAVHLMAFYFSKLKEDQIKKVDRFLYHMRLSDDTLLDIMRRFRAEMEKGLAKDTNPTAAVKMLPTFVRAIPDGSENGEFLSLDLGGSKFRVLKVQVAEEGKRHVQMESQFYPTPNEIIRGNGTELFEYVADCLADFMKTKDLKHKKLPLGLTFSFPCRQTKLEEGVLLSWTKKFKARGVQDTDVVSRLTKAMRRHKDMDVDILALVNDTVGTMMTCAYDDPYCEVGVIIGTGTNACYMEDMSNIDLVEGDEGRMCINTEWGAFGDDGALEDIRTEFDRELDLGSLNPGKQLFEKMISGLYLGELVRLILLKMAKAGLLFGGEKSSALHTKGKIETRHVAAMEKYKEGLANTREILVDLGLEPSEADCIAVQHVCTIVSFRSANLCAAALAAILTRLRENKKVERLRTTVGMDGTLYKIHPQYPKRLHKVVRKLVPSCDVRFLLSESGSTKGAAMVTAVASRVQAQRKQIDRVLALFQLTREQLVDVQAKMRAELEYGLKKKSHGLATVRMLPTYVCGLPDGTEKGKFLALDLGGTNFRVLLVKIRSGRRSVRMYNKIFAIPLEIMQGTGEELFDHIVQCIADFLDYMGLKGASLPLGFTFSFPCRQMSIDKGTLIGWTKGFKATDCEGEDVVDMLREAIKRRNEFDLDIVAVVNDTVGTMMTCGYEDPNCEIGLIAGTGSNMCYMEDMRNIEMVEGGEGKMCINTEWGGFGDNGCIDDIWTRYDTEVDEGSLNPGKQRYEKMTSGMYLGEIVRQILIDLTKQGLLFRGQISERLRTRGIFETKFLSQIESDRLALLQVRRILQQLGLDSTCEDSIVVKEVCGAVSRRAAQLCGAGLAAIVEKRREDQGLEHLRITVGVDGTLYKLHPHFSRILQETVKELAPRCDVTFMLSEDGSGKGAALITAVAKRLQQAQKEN

[18] = molecular target: T5, Tyrosine-protein phosphatase non-receptor type 22; format: functional; remark: listed apart in the source
[19] = molecular target: T7, Kappa-type opioid receptor (Homo sapiens, UniProt P41145); format: functional
[20] = molecular target: Mu-type opioid receptor (Homo sapiens, UniProt P35372); test: HTS Image-Based Screen for Agonists of the MOR Receptor. [Related pubchem assays (depositor defined):AID1777, AID1785, AID1786, AID2133]; format: functional;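 also: imaging of beta-arrestin GFP recruitment into spots after receptor activation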
[21] = molecular target: T8, Delta-type opioid receptor (Homo sapiens, UniProt P41143); test: HTS Image-Based Screen for Agonists of the DOR Receptor. [Related pubchem assays (depositor defined):AID1777, AID1786, AID2133]; format: functional
[22] = molecular target: Beta-galactosidase (Escherichia coli, UniProt Q8VNN2); format: functional
[23] = molecular target: T7, Kappa-type opioid receptor; format: functional; remark: listed apart in the source
[24] = HEp-2 cell cytotoxicity, dose response, cytotoxicity control for RSV inhibitor project, HTS (AID 2410); format: functional; details: human respiratory syncytial virus
[25] = molecular target: T8, Delta-type opioid receptor; test: HTS Image-Based Screen for Antagonists of the DOR Receptor. [Related pubchem assays (depositor defined):AID1777, AID1785, AID1786, AID2133]; format: functional

T8 sequence (P41143 whole entry): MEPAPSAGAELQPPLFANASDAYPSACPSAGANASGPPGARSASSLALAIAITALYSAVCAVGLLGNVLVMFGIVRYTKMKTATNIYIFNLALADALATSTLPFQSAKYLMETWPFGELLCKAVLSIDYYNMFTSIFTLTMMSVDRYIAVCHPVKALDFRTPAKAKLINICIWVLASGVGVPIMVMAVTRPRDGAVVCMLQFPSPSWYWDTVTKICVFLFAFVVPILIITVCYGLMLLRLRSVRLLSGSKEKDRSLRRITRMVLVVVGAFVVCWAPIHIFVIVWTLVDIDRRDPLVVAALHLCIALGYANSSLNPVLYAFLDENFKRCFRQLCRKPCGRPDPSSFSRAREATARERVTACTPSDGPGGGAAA
T7 sequence (P41145 whole entry): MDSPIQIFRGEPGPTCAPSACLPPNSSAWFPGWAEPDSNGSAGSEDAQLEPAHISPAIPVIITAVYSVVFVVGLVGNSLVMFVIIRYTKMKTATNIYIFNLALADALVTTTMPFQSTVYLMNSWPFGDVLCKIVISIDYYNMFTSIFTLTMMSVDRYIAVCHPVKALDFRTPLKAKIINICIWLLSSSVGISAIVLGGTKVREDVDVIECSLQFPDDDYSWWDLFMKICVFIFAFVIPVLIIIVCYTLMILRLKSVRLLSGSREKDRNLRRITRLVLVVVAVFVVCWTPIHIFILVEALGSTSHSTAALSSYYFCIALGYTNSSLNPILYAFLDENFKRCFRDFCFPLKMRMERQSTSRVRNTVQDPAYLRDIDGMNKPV
Exodeoxyribonuclease V, sequence (P04993 whole entry): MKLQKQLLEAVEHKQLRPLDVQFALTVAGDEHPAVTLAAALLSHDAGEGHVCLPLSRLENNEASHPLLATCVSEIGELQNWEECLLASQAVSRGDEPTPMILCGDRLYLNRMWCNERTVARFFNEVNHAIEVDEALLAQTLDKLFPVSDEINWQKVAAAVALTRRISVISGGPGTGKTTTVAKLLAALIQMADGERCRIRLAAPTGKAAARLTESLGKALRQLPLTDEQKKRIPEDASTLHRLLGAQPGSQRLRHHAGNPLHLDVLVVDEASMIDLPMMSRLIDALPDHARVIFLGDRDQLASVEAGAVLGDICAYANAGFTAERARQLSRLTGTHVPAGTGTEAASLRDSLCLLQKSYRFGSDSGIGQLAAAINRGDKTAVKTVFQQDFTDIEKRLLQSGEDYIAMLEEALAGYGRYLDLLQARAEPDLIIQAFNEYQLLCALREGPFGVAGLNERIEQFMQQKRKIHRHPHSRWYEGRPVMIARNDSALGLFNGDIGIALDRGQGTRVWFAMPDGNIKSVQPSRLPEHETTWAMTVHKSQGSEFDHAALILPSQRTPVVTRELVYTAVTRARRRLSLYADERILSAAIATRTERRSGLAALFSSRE
Exodeoxyribonuclease V, sequence (P07648 whole entry): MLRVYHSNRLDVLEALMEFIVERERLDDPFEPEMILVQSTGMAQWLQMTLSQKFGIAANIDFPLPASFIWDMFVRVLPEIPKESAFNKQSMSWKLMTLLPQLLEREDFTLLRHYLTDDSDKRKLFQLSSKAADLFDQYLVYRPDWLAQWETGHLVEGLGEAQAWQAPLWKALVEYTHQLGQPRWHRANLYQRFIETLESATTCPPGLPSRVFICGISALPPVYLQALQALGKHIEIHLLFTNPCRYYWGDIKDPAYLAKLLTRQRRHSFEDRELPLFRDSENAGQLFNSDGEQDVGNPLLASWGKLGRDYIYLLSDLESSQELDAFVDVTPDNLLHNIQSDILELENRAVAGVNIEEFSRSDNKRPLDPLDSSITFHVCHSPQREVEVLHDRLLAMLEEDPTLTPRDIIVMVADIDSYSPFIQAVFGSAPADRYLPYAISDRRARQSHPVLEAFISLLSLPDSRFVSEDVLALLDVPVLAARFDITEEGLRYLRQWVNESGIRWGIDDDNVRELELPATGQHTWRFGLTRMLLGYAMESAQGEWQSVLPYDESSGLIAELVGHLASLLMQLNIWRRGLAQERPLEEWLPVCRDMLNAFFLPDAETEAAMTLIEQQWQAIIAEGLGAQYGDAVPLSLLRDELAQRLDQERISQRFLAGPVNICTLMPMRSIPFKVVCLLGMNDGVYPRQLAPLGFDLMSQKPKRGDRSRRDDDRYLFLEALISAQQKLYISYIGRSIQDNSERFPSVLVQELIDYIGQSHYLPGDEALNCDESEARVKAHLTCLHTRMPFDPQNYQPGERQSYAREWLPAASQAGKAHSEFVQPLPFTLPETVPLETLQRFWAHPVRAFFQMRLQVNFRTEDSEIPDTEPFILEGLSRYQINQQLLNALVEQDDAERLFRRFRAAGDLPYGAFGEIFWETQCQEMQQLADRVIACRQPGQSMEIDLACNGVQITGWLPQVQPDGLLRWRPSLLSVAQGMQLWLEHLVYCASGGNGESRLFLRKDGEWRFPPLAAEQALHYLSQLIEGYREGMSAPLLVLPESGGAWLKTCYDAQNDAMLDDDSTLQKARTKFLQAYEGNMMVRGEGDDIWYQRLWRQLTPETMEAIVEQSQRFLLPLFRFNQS
Exodeoxyribonuclease V, sequence (P08394 whole entry): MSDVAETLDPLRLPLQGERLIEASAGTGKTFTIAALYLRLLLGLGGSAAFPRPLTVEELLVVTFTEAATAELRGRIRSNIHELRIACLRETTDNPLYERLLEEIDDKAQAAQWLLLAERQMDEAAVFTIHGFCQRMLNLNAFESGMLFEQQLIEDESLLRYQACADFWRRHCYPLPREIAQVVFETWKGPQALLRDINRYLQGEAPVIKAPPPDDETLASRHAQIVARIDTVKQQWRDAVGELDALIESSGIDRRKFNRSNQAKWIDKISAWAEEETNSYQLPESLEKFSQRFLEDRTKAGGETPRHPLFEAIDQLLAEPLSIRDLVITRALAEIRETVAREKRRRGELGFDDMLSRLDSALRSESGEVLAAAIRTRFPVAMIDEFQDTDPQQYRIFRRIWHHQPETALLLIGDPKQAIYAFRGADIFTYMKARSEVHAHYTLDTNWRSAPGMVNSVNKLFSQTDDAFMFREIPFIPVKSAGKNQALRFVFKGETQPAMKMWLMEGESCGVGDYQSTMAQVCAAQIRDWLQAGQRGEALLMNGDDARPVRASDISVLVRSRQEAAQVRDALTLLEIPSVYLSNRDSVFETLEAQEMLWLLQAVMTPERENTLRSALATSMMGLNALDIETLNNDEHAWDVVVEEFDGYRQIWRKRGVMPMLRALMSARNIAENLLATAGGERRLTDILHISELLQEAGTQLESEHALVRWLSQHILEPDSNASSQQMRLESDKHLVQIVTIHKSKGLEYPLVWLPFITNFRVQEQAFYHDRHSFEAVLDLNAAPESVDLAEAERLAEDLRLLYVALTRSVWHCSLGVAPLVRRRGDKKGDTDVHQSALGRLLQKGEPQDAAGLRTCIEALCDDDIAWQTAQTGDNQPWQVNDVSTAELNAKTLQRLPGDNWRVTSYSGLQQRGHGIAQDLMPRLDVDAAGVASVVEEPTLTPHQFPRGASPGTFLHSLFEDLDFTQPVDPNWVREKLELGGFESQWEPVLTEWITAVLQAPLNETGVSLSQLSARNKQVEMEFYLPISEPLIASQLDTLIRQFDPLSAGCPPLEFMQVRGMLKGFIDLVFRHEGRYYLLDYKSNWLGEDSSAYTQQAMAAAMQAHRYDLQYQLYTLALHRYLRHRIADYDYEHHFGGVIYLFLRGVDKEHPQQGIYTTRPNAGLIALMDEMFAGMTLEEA
Nucleotide-binding oligomerization domain-containing protein 2, sequence (Q9HC29 whole entry, the tested form may be a part): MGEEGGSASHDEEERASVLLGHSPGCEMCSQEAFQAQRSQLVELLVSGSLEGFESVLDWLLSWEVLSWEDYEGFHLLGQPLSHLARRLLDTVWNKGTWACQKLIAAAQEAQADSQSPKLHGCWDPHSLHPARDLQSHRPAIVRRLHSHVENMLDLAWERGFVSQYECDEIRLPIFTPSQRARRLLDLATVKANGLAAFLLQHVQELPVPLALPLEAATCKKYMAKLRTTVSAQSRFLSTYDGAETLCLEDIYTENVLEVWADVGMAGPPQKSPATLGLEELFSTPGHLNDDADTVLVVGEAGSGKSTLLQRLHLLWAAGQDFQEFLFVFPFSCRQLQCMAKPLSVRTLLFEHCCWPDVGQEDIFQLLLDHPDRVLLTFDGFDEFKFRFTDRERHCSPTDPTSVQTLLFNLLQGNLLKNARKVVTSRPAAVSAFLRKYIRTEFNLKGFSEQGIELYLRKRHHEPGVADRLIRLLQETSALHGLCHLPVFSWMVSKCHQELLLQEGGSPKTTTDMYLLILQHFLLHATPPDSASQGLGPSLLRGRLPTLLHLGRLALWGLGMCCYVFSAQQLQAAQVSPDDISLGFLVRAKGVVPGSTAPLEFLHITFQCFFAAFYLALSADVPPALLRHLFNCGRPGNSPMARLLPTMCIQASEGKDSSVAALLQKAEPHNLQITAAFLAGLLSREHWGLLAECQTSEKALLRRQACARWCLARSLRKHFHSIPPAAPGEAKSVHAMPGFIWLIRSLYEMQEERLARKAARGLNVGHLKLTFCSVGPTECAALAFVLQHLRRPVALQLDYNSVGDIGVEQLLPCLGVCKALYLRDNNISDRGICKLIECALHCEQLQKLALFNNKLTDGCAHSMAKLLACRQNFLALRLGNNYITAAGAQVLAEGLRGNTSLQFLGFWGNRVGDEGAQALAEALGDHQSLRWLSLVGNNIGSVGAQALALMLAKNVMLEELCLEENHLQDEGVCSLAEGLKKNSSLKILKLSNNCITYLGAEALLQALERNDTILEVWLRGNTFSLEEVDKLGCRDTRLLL
Phosphomannomutase 2, sequence (O15305 whole entry): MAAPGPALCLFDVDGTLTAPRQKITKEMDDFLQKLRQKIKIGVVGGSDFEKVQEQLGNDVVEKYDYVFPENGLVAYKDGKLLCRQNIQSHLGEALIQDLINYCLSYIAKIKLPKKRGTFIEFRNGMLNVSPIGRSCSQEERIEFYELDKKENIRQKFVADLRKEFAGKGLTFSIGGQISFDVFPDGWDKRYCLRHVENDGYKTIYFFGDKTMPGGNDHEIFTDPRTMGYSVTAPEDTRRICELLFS

SMILES: N[C@H]1[C@@H](C(=O)O)[C@H]2C=C[C@H]1C2.O=S(=O)(O)c1ccccc1
- AC50 [1]: inactive

SMILES: CCc1cc(CC)c(/N=c2\ssnc2Cl)c(CC)c1
- IC50 [2]: > 100 µM (inactive)
- IC50 [3]: > 100 µM (inactive)

SMILES: Nc1nonc1C(=O)N/N=C/c1ccc([N+](=O)[O-])o1
- IC50 [4]: > 20 µM (inactive)
- IC50 [5]: > 20 µM (inactive)
- IC50 [6]: > 20 µM (inactive)
- EC50 [7]: 5.54 µM (active)
- IC50 [8]: 7.01 µM (active)
- CC50 [9]: > 40 µM (active)
- EC50 [10]: 8.5 µM (active)
- IC50 [11]: 14.9 µM (inactive)
- IC50 [12]: 56.4 µM (inactive)
- IC50 [13]: > 20 µM (inactive)

SMILES: COc1cc(SC#N)ccc1/N=C/c1c(C)[nH]n(-c2ccc(Cl)cc2)c1=O
- IC50 [14]: > 79.4 µM (inactive)
- EC50 [15]: > 80 µM (inactive)
- IC50 [16]: > 79.4 µM (inactive)
- EC50 [17]: > 80 µM (inactive)
- IC50 [18]: > 79.4 µM (inactive)

SMILES: Nc1c2c(nc3sc4c(c13)CCCC4)CCCC2
- pIC50 [19]: 5.16
- EC50 [20]: > 32 µM (inactive)
- EC50 [21]: > 32 µM (inactive)
- EC50 [22]: > 31.5 µM (inactive)
- IC50 [23]: 9.82 µM (active)
- CC50 [24]: 25.7 µM (active)
- IC50 [25]: > 32 µM (inactive)
